Test results from PMC8134483 (Scientific Reports, 2021).
“Also recorded” adds a separate entry of the source. Where two headings read alike, the source gives them in different places.

What was measured:
hCB2R [1] = target: T1, hCB2R (Homo sapiens, UniProt P34972); assay: CB2R bias analysis (operational model, cAMP inhibition vs βarrestin2); assay type: cell-based; conditions: CP55,940 as reference agonist; >0 cAMP bias, <0 βarrestin2 bias
T1 construct: host or cells: CHO-K1 (PathHunter)
Description: Estimates of Ki, EC50, Emin, and Emax were determined using non-linear regression with variable slope (four parameters) (GraphPad, Prism, v. 8.0). […] One-way analysis of variance (ANOVA), followed by Tukey’s post-hoc test, was used for statistical analyses (p < 0.05 determined to be significant); and Bartlett’s test was used to confirm homogeneity of variance (GraphPad).

hCB1R [2] = target: T2, hCB1R (Homo sapiens, UniProt P21554); assay: biochemical; assay type: binding; conditions: for CB1R [^3H]CP55,940 Emin: bottom of the concentration–response curve, mean ± SEM; for CB1R versus CB2R selectivity, receptor affinity: CB1R vs CB2R [^3H]CP55,940 binding
T2 construct: expressed in transfected cells; host or cells: CHO-K1

hCB2R [3] = target: T1, hCB2R; assay: PathHunter βarrestin2 recruitment, CB2R; assay type: cell-based; conditions: for βarrestin2 recruitment to CB2R, activity in words: relative to CP55,940
hCB1R [4] = target: T2, hCB1R; assay: cell-based; assay type: cell-based; conditions: for CB1R versus CB2R selectivity, βarrestin2 recruitment: CB1R vs CB2R; for EC50: CHO hCB1R, 90 min, value with 95% CI, read-out: CB1R βarrestin2 recruitment EC50; for Emax: read-out: CB1R βarrestin2 recruitment Emax; for βarrestin2 recruitment to CB1R, activity in words: relative to CP55940
hCB1R [5] = target: T2, hCB1R; assay: cell-based; assay type: cell-based; conditions: for EC50: CHO hCB1R, 10 µM FSK, 90 min, value with 95% CI, read-out: CB1R cAMP Inhibition EC50; for Emax: read-out: CB1R cAMP Inhibition Emax
hCB2R [6] = target: T1, hCB2R; assay: HitHunter inhibition of FSK-stimulated cAMP, CB2R; assay type: cell-based
hCB2R [7] = target: T1, hCB2R; assay: [^3H]CP55,940 competition (radioligand displacement) binding to CB2R; conditions: for CB2R [^3H]CP55,940 Emin: bottom of the concentration–response curve, mean ± SEM

T1 sequence (P34972 whole entry): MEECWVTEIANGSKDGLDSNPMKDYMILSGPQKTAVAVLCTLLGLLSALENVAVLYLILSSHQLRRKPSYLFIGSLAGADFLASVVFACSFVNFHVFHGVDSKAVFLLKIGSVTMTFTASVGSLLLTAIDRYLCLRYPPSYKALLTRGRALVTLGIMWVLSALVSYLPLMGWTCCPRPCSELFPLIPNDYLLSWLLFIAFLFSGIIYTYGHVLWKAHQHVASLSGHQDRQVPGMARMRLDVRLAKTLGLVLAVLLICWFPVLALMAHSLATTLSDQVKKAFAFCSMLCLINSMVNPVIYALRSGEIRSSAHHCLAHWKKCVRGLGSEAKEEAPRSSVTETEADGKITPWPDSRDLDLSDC
T2 sequence (P21554 whole entry): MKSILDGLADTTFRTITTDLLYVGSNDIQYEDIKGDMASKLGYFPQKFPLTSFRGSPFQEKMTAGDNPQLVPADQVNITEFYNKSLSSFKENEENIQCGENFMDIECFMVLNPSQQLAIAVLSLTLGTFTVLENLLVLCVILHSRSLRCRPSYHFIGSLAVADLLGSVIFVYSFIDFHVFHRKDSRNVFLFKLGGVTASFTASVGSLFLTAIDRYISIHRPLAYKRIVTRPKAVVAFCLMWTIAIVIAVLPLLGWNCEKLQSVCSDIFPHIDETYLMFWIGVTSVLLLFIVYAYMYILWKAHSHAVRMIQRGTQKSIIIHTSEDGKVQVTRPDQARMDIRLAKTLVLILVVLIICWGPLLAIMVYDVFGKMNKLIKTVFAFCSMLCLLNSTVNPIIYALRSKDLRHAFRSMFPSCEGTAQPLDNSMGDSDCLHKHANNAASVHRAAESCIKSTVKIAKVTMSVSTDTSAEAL

Row | Compound | CB2R bias between cAMP inhibition and βarrestin2 recruitment, ∆∆LogR (cAMP—βarr2), in words (hCB2R [1]) | Ki (hCB1R [2]) [nM] | CB1R [^3H]CP55,940 Emin (hCB1R [2]) [%] | EC50 (hCB2R [3]) [nM] | Emax (hCB2R [3]) [%] | βarrestin2 recruitment to CB2R, activity in words (hCB2R [3]) | CB1R versus CB2R selectivity, βarrestin2 recruitment (hCB1R [4]) | EC50 (hCB1R [4]) [nM] | Emax (hCB1R [4]) [%] | EC50 (hCB1R [5]) [nM] | Emax (hCB1R [5]) [%] | EC50 (hCB2R [6]) [nM] | Emax (hCB2R [6]) [%] | Affinity for CB2R compared with CP55,940, in words (hCB2R [7]) | Ki (hCB2R [7]) [nM] | CB2R [^3H]CP55,940 Emin (hCB2R [7]) [%] | βarrestin2 recruitment to CB1R, activity in words (hCB1R [4]) | CB1R versus CB2R selectivity, cAMP inhibition potency (hCB1R [5]; CB1R vs CB2R) | CB1R versus CB2R selectivity, receptor affinity (hCB1R [2]) | other results
1 | COC(=O)[C@H](Cc1ccccc1)NC(=O)c1cn(CCCCCF)c2ccccc12 [5-fluoro MPP-PICA] | did not display a bias | 1200 | 59 ± 18 | 630 | 82 ± 1.9 | not different with regard to potency relative to the reference agonist CP55,940, and produced supramaximal EMax responses | minimally active at CB1R but agonists at CB2R | > 10000 | 170 ± 9.8 | 6.4 | 92 ± 6.8 | 12 | 110 ± 13 | significantly less affinity | 540 | 89 ± 6.3 | – | – | – | Affinity for CB1R compared with CP55,940, in words (hCB1R [2]): significantly less affinity
2 | CC(C)C(NC(=O)c1nn(Cc2cccc(F)c2)c2ccccc12)C(N)=O (stereo not shown) [meta-AB-FUBINACA] | did not display a bias | 16 | 30 ± 2.9 | 280 | 130 ± 3.7 | not different with regard to potency relative to the reference agonist CP55,940, and produced supramaximal EMax responses | minimally active at CB1R but agonists at CB2R | > 10000 | 22 ± 6.9 | 5.7 | 91 ± 12 | 5.4 | 86 ± 13 | significantly greater affinity | 0.63 | 89 ± 6.3 | Inactive at βarrestin2 | – | – | –
3 | CCCCCn1cc(C(=O)c2cccc3ccccc23)cc1-c1ccccc1 [JWH 145] | significant bias toward the inhibition of cAMP | 110 | 69 ± 7.6 | 190 | 15 ± 1.7 | – | – | > 10000 | 27 ± 9 | 0.03 | 82 ± 9.3 | 61 | 86 ± 17 | significantly less affinity | 860 | 70 ± 6.1 | – | more potent at CB1R relative to CB2R | – | –
4 | N#CCCCCn1cc(C(=O)c2cccc3ccccc23)c2ccccc21 [AM 2232] | significant bias toward the inhibition of cAMP | 0.31 | 66 ± 3.6 | 130 | 130 ± 19 | greater potency and produced supramaximal EMax responses | – | > 10000 | 68 ± 1.6 | 190 | 100 ± 9.3 | 1.7 | 86 ± 1.9 | significantly less affinity | 600 | 73 ± 6.2 | – | more potent at CB2R relative to CB1R | greater affinity at CB1R relative to CB2R | CB1R-dependent inhibition of FSK-stimulated cAMP, activity in words (hCB1R [5]; relative to CP55940): significantly lower potency relative to CP55940, but retained full (i.e., 100%) efficacy
5 | CCCCCn1cc(C(=O)c2ccc(CCC)c3ccccc23)c2ccccc21 [JWH 182] | obligate cAMP-biased ligands | 0.77 | 17 ± 2.2 | > 10000 | 13 ± 1.8 | inactive in βarrestin2; also recorded: Inactive at βarrestin2 | inactive at CB2R but an agonist at CB1R | 1600 | 110 ± 9.2 | 24 | 78 ± 9.4 | 25 | 120 ± 11 | – | 6.2 | 21 ± 1.7 | equipotent, but produced supramaximal EMax responses | – | – | CB1R versus CB2R selectivity, cAMP inhibition efficacy (hCB1R [5]; CB1R vs CB2R): greater efficacy at CB2R than CB1R
6 | O=C(Nc1cccc2ccccc12)c1cn(Cc2ccc(F)cc2)c2ccccc12 [FDU-NNEI] | significant bias toward the inhibition of cAMP | 14 | 41 ± 2.8 | 1000 | 25 ± 1.3 | – | – | > 10000 | 49 ± 8.2 | 1 | 96 ± 8.1 | 0.01 | 103 ± 7.1 | – | 8.8 | 85 ± 8.1 | – | – | greater affinity at CB1R relative to CB2R | CB1R versus CB2R selectivity, [^3H]CP55,940 displaced (hCB1R [2]; CB1R vs CB2R): displaced more [^3H]CP55,940 at CB1R relative to CB2R
7 | Cc1ccc(C(=O)c2cn(CCCCCCl)c3ccccc23)c2ccccc12 [MAM2201 N-(5-chloropentyl) analog] | obligate cAMP-biased ligands | 10 | 5.3 ± 3.0 | > 10000 | 5.5 ± 1.9 | inactive in βarrestin2 | – | > 10000 | 17 ± 2.7 | 2.8 | 98 ± 8.7 | 580 | 120 ± 25 | significantly less affinity | > 10000 | 40 ± 3.8 | Inactive at βarrestin2 | more potent at CB1R relative to CB2R | greater affinity at CB1R relative to CB2R | βarrestin2 recruitment to CB2R, activity in words (hCB2R [3]; listed as MAM-2201 N-(5-chloropentyl) analog): Inactive at βarrestin2
8 | O=C(c1ccc(Cl)c2ccccc12)c1cn(CCCCCF)c2ccccc12 [Cl 2201] | significant bias toward the inhibition of cAMP | 0.09 | 76 ± 2.8 | 120 | 17 ± 1.1 | – | – | > 10000 | 16 ± 1 | 2.6 | 89 ± 3.9 | 1 | 110 ± 8.4 | – | 26 | 66 ± 2.5 | Inactive at βarrestin2 | – | greater affinity at CB1R relative to CB2R | –
